Measurements reported in patent publication US11738007B2, “Treatment of glaucoma using endothelin receptor antagonists” (Perfuse Therapeutics, Inc., priority 2019, dated 2023).
“And” between values parts separate entries of the source, which are not always exact repeats. Identical values can stand only once. Like-named read-outs stand apart in the source and are kept apart here.

What was measured:
ETA/ETB receptor = test: ETA/ETB selectivity (specificity); format: biochemical; settings: ETA versus ETB, rating in words
Source text: (§1) In the above table, the physicochemical data, e.g., solubility, were obtained following standard protocols known in the field (see, e.g., Reis et al., Mini Rev Med Chem., 2010, 10(11):1071-6; Avdeef et al., Expert Opin Drug Metab Toxicol., 2005, 1(2):325-42; Bharate et al., Comb Chem High Throughput Screen., 2016, 19(6):461-9; and Jain et al., J Pharm Biomed Anal., 2013, 86:11-35); and the biochemical data, i.e., potency for ETA/ETB, were obtained following the protocols known in the field (see, e.g., Kirkby et al., Br J Pharmacol., 2008, 153(6):1105-19; and Maguire et al., Br J Pharmacol., 2014, 171(24):5555-72).

Permeability (PAMPA) = format: in vitro ADME; settings: rating in words
Source text: as §1

[1] = tested on: elevated intraocular pressure (IOP); test: Morrison's rat model of glaucoma (elevated IOP); format: in vivo, Brown Norway rats; settings: topical eye drops 100 μg per dose, five days a week, four weeks
Source text: Adult male and female retired breeder Brown Norway rats (approximate age groups of 8 to 11 months) were obtained from Envigo (Indianapolis, Ind.). Baseline IOP measurements and pattern electroretinogram (PERG) amplitudes were collected prior to the surgery for elevation of IOP (to ensure that the IOP and PERG amplitudes were in the expected range of values). IOP was elevated in one eye (left eye) of the rats, while the corresponding right eyes served as contralateral controls. The Morrison method to elevate IOP in rats was carried out by injection of 50 μL of hypertonic saline through the episcleral veins to sclerose the trabecular meshwork. IOP was measured twice a week throughout the entire duration of the experiment. […] After detecting an elevation of IOP for two consecutive days, topical administration of eye drops (20 μL (100 μg) per dose of the tested compounds in the IOP elevated eye) was commenced and carried out for five days a week for a total of four weeks. In the 4th week of treatment, PERG analysis was carried out and rats were sacrificed by an overdose of pentobarbital (Fatal-Plus). Aqueous humor was collected from the rat eyes, frozen and shipped for analysis. Retinal flat mounts were prepared, immunostained with the RGC marker, Brn3a antibody and surviving RGCs were counted in two eccentricities (central and peripheral). For this study, the Morrison's model was used to induce ocular hypertension in adult male retired breeder Brown Norway rats as previously described by Morrison et al., (Morrison J C, Moore […], Gold […], Johnson E C. A rat model of chronic pressure-induced optic nerve damage. Exp Eye Res. 1997; 64(1):85-96). The immunostained retinal flat mounts were obtained to measure the retinal ganglion cell (RGC) counts. To obtain immunostained retinal flat mounts, the animals were euthanized after the treatments and then their eyes were enucleated. The eye cups were fixed overnight at 4° C. in 4% paraformaldehyde (PFA) and retinal flat mounts were prepared for collecting images. The retinal ganglion cell (RGC) counting was conducted using the images of immunostained retinal flat mounts. The images were uploaded to ImageJ, a photo editor designed for biology research (Rasband, 1997-2018) and the labeled retinal ganglion cells were counted manually in two eccentricities (central and peripheral). […] Pattern ERG (PERG) was used to assess the RGC function. […] Briefly, PERG signals were acquired from a DTL-plus electrode placed on the lower part of the corneal surface and the PERG waves were analyzed using the EMWIN software (LKC). The difference between the amplitude of the major positive (P1) and negative (N2) waves were calculated to […] amplitude.

ETA receptor = target: T1, ETA receptor (Homo sapiens, UniProt P25101); test: Functional potency for ETA receptor; format: biochemical; settings: rating in words
T1 sequence (P25101 21-427): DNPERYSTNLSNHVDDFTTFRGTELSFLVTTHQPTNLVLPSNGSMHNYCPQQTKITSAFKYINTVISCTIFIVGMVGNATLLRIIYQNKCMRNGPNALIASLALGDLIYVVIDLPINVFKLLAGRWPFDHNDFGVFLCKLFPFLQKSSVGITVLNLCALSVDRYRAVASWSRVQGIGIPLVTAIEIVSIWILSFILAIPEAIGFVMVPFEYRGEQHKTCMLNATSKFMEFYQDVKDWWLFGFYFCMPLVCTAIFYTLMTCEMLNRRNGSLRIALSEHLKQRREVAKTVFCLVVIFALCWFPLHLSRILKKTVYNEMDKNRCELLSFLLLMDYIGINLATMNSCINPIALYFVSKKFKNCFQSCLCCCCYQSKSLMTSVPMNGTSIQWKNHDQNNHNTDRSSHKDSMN
Source text: as §1

Stability in solid state = format: physicochemical; settings: 2 h @ l25° C.
Source text: as §1

LogD = format: physicochemical; settings: pH 7.4
Source text: as §1

Solubility = format: physicochemical
Source text: as §1

[2] = Pharmacokinetics after topical or oral administration in the rat; format: in vivo, Brown Norway rats
Method: After the administrations, the animals (N=2) were euthanized at different time points (e.g. 4 and 8 hours) and tissues were collected for analysis. List of tissues collected include plasma, retina/retinal pigment epithelium (RPE)/choroid, vitreous humor and aqueous humor.

ETB receptor = target: T2, ETB receptor (Homo sapiens, UniProt P24530); test: Functional potency for ETB receptor; format: biochemical
T2 sequence (P24530 27-442): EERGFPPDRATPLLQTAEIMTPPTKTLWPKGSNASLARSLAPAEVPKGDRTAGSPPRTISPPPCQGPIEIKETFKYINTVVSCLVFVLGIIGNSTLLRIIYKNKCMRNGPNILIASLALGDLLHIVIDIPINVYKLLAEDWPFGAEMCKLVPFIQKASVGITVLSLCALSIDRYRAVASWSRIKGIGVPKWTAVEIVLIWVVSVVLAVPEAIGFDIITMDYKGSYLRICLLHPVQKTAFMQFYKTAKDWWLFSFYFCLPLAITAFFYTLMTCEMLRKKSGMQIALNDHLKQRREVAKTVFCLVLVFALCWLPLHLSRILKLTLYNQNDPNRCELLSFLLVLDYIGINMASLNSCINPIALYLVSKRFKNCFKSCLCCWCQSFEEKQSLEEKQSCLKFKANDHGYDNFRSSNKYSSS
Source text: as §1

Specificity (rating) (ETA/ETB receptor): Low specificity
Permeability (rating) (Permeability (PAMPA)): Mid-High
Functional Potency for ETA and ETB Receptors (rating) (ETA receptor): High potency
Stability in Solid State (rating) (Stability in solid state): unstable
Stability in Solid State, remaining (Stability in solid state): about 87% remaining/
logD (LogD): 2.3
solubility (Solubility; aqueous buffer, pH 7, amorphous form, read-out: Solubility at pH 7): 173 µg/mL and 298 µM
solubility (Solubility; ethyl acetate, organic solvent or mixture, read-out: Solubility in Ethyl Acetate): > 10600 µg/mL and > 18400 µM
Solubility in Ethyl Acetate (rating) (Solubility; ethyl acetate, rating in words): Good
solubility (Solubility; pH 2, simulated gastric fluid, read-out: Solubility at pH 2): 92.5 µg/mL and 160 µM
Detection in retina/RPE/choroid ([2]; oral, 50 mg/kg): detectable
Detection in retina/RPE/choroid, aqueous humor and vitreous humor ([2]; topical eye drop 100 μg, 4 and 8 hours post-administration): detected
IC50 (ETB receptor): 3.48 nM
SMILES: CCCCCS(=O)(=O)N(CCC)CCN1C[C@H](c2ccc3c(c2)OCO3)[C@@H](C(=O)O)[C@@H]1c1ccc(OC)c(F)c1 [A-182086, (2R,3R,4S)-4-(2H-1,3-benzodioxol-5-yl)-2-(3-fluoro-4-methoxyphenyl)-1-[2-(N-propylpentane-1-sulfonamido)ethyl]pyrrolidine-3-carboxylic acid]
RGC function, pattern electroretinogram (PERG) changes [1]: maintained RGC function
Retinal ganglion cell (RGC) counts, peripheral retina [1]: prevented RGC loss
